In brackets after ≈: the same amount, converted by molar mass. Where two headings read alike, the source gives them in different places.
Test system: C. albicans isolates
Assay: Broth microdilution susceptibility (CLSI M27-A3) at different medium pH
Format: cell-based, Candida albicans
Experimental: Ten strains each of C. glabrata and C. albicans vaginal isolates were tested. The strains were obtained from recent clinical trial patients with vulvovaginal candidiasis (VVC) prior to treatment. Candida strains were obtained from the Mycology Reference Library (MRL) at Case Western Reserve University School of Medicine, Ohio, United States.
Susceptibility testing was performed using a broth microdilution method, according to CLSI M27-A3 guidelines (CLSI. 2008. Reference Method for Broth Dilution Antifungal Susceptibility Testing of Yeasts; Approved Standard—Third Edition. Clinical and Laboratory Standards Institute, CLSI document M27-A3). Antifungals and concentrations tested were SCY-078 and micafungin (both at concentrations within the range of 0.015 to 8 μg/ml) and fluconazole (at concentrations within the range of 0.125 to 64 μg/ml). A 0.1-ml C. albicans and C. glabrata inoculum of 0.5-2.5×10^3 blastospores/ml in RPMI 1640 medium was added to each microdilution well. ATCC strains of Candida parapsilosis and Candida krusei QC isolates were also included concurrently to ensure quality control. Antifungal susceptibility testing was carried out for each isolate in RPMI 1640 at pH 7 (to mimic RPMI medium used in testing the susceptibility of yeast by the CLSI M-27A3 document), pH 5.7, and pH 4.5 (to mimic the pH of the vaginal cavity) by adjusting the pH of the media using NaOH or HCl. […] Agents Chemother., 43: 1383-1386 (1999).
[…] SCY-078 powder was manufactured by Avista, Laboratories, NC. Micafungin and fluconazole were sourced from LGM Pharma.

[1] = 50% inhibition, pH 4.5, 24 h, 10 vaginal isolates

- MIC50 [1]: < 0.016 µg/mL
- MIC90 [1]: < 0.016 µg/mL
- MIC range [1]: <0.016 to 0.031 µg/mL
- MIC range (50% inhibition, pH 5.72, 24 h, 10 vaginal isolates): 0.125 to .25 µg/mL
- MIC range (50% inhibition, pH 7.0, 24 h, 10 vaginal isolates): 0.125 to 0.5 µg/mL
- MIC range (100% inhibition, pH 4.5, 24 hours, 10 isolates): <0.016 to 4 µg/mL
- MIC range (100% inhibition, pH 5.72, 24 hours, 10 isolates): 0.25 to 2 µg/mL
- MIC range (100% inhibition, pH 7.0, 24 hours, 10 isolates): 0.25 to 4 µg/mL
- reduction in MIC50 at pH 4.5 compared to the MIC50 at pH 7.0 (C. albicans isolates): 16 fold
- MIC50 (Candida albicans, 24 h, pH 4.5, 50% inhibition, pH 4.5, 24 h, 10 vaginal isolates, read-out: MIC50): < 0.016 µg/mL
- MIC90 (Candida albicans, 24 h, pH 4.5, 50% inhibition, pH 4.5, 24 h, 10 vaginal isolates, read-out: MIC90): < 0.016 µg/mL
- MIC50 (Candida albicans, 24 h, pH 4.5, 100% inhibition, pH 4.5, 24 hours, 10 isolates, read-out: MIC50): 0.031 µg/mL (≈ 0.0425 µM)
- MIC90 (Candida albicans, 24 h, pH 4.5, 100% inhibition, pH 4.5, 24 hours, 10 isolates, read-out: MIC90): 0.031 µg/mL (≈ 0.0425 µM)
- MIC (Candida albicans, 24 h, pH 4.5, C. albicans MRL 34366, pH 4.5, 24 hours, read-out: MIC (50% inhibition)): 0.031 µg/mL (≈ 0.0425 µM)
- MIC (Candida albicans, 24 h, pH 4.5, C. albicans MRL 34366, pH 4.5, 24 hours, read-out: MIC (100% inhibition)): 0.031 µg/mL (≈ 0.0425 µM)
- MIC (Candida albicans, 24 h, pH 4.5, C. albicans MRL 34367, pH 4.5, 24 hours, read-out: MIC (50% inhibition)): < 0.016 µg/mL
- MIC (Candida albicans, 24 h, pH 4.5, C. albicans MRL 34367, pH 4.5, 24 hours, read-out: MIC (100% inhibition)): 0.031 µg/mL (≈ 0.0425 µM)
- MIC (Candida albicans, 24 h, pH 4.5, C. albicans MRL 34372, pH 4.5, 24 hours, read-out: MIC (50% inhibition)): < 0.016 µg/mL
- MIC (Candida albicans, 24 h, pH 4.5, C. albicans MRL 34372, pH 4.5, 24 hours, read-out: MIC (100% inhibition)): < 0.016 µg/mL
- MIC (Candida albicans, 24 h, pH 4.5, C. albicans MRL 34373, pH 4.5, 24 hours, read-out: MIC (50% inhibition)): < 0.016 µg/mL
- MIC (Candida albicans, 24 h, pH 4.5, C. albicans MRL 34373, pH 4.5, 24 hours, read-out: MIC (100% inhibition)): < 0.016 µg/mL
- MIC (Candida albicans, 24 h, pH 4.5, C. albicans MRL 34374, pH 4.5, 24 hours, read-out: MIC (50% inhibition)): < 0.016 µg/mL
- MIC (Candida albicans, 24 h, pH 4.5, C. albicans MRL 34374, pH 4.5, 24 hours, read-out: MIC (100% inhibition)): < 0.016 µg/mL
- MIC (Candida albicans, 24 h, pH 4.5, C. albicans MRL 34385, pH 4.5, 24 hours, read-out: MIC (50% inhibition)): < 0.016 µg/mL
- MIC (Candida albicans, 24 h, pH 4.5, C. albicans MRL 34385, pH 4.5, 24 hours, read-out: MIC (100% inhibition)): 0.031 µg/mL (≈ 0.0425 µM)
- MIC (Candida albicans, 24 h, pH 4.5, C. albicans MRL 34389, pH 4.5, 24 hours, read-out: MIC (50% inhibition)): < 0.016 µg/mL
- MIC (Candida albicans, 24 h, pH 4.5, C. albicans MRL 34389, pH 4.5, 24 hours, read-out: MIC (100% inhibition)): 0.031 µg/mL (≈ 0.0425 µM)
- MIC (Candida albicans, 24 h, pH 4.5, C. albicans MRL 34399, pH 4.5, 24 hours, read-out: MIC (50% inhibition)): < 0.016 µg/mL
- MIC (Candida albicans, 24 h, pH 4.5, C. albicans MRL 34399, pH 4.5, 24 hours, read-out: MIC (100% inhibition)): 0.031 µg/mL (≈ 0.0425 µM)
- MIC (Candida albicans, 24 h, pH 4.5, C. albicans MRL 34408, pH 4.5, 24 hours, read-out: MIC (50% inhibition)): < 0.016 µg/mL
- MIC (Candida albicans, 24 h, pH 4.5, C. albicans MRL 34408, pH 4.5, 24 hours, read-out: MIC (100% inhibition)): 4 µg/mL (≈ 5.48 µM)
- MIC (Candida albicans, 24 h, pH 4.5, C. albicans MRL 34449, pH 4.5, 24 hours, read-out: MIC (50% inhibition)): < 0.016 µg/mL
- MIC (Candida albicans, 24 h, pH 4.5, C. albicans MRL 34449, pH 4.5, 24 hours, read-out: MIC (100% inhibition)): 0.031 µg/mL (≈ 0.0425 µM)
- MIC50 (Candida albicans, 24 h, pH 5.72, 50% inhibition, pH 5.72, 24 h, 10 vaginal isolates, read-out: MIC50): 0.25 µg/mL (≈ 0.342 µM)
- MIC90 (Candida albicans, 24 h, pH 5.72, 50% inhibition, pH 5.72, 24 h, 10 vaginal isolates, read-out: MIC90): 0.25 µg/mL (≈ 0.342 µM)
- MIC50 (Candida albicans, 24 h, pH 5.72, 100% inhibition, pH 5.72, 24 hours, 10 isolates, read-out: MIC50): 0.25 µg/mL (≈ 0.342 µM)
- MIC90 (Candida albicans, 24 h, pH 5.72, 100% inhibition, pH 5.72, 24 hours, 10 isolates, read-out: MIC90): 0.5 µg/mL (≈ 0.685 µM)
- MIC (Candida albicans, 24 h, pH 5.72, C. albicans MRL 34366, pH 5.72, 24 hours, read-out: MIC (50% inhibition)): 0.25 µg/mL (≈ 0.342 µM)
- MIC (Candida albicans, 24 h, pH 5.72, C. albicans MRL 34366, pH 5.72, 24 hours, read-out: MIC (100% inhibition)): 0.5 µg/mL (≈ 0.685 µM)
- MIC (Candida albicans, 24 h, pH 5.72, C. albicans MRL 34367, pH 5.72, 24 hours, read-out: MIC (50% inhibition)): 0.125 µg/mL (≈ 0.171 µM)
Structure (SMILES): CC(C)[C@@H](C)[C@@]1(C)CC[C@]2(C)[C@H]3CC[C@@H]4[C@@]5(COC[C@]4(C)[C@@H](OC[C@](C)(N)C(C)(C)C)[C@H](n4ncnc4-c4ccncc4)C5)C3=CC[C@@]2(C)[C@@H]1C(=O)O [SCY-078]
